Data on 38 compounds can be found in BindingDB's records for doi:10.1016/j.bmcl.2011.06.024 (Merck Research Laboratories, 2011).

In the first assay the target is T1, Smoothened homolog (Homo sapiens, UniProt Q99835). Description: Displacement of [125I]-PA cyclopamine from smoothened expressed in african green monkey COS-1 cells after 10 mins by autoradiography. On the technique in general: Displacement assays read how much labelled ligand stays bound in the presence of the test substance.
T1 sequence (Q99835 whole entry): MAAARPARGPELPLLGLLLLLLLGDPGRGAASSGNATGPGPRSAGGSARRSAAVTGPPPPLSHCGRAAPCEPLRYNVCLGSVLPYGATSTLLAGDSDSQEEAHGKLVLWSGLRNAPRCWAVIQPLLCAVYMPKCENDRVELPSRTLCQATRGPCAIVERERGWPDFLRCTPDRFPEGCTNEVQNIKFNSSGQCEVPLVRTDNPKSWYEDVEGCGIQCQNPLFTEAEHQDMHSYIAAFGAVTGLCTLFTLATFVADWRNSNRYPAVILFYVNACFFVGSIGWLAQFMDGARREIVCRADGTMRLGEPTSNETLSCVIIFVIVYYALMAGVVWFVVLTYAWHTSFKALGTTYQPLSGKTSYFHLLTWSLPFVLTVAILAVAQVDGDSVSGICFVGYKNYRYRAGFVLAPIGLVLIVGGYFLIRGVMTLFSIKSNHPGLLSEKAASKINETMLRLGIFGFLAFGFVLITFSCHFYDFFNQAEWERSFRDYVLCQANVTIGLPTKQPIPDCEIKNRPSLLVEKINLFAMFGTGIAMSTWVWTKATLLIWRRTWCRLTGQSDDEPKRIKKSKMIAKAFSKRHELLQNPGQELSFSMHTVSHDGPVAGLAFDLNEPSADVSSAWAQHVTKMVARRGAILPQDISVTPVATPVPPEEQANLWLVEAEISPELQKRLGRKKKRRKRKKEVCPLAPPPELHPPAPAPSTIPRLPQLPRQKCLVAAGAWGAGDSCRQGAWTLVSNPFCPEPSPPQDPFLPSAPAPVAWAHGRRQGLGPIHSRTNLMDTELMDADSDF
For the compound `O=C(Nc1ccccc1-c1ccccc1)N1CCn2c(c(O)n(-c3cccc(-c4ccccc4)c3)c2=O)C1`, the IC50 (commonly the concentration at which inhibition is half-maximal) was > 2500 nM.

Turning to `O=C(Nc1ccccc1-c1ccccc1)N1CCn2c(c(O)n(C3CC34CCCCC4)c2=O)C1` (stereo not given), the IC50 is > 2500 nM.

In the case of `COC(=O)N1CCn2c(c(O)n([C@H]3C[C@@H]3c3ccccc3)c2=O)C1`, the IC50 was > 1500 nM. Still for that read-out and setting: in the case of `CC(=O)N1CCn2c(c(O)n([C@H]3C[C@@H]3c3ccccc3)c2=O)C1` it was > 1500 nM. `O=C(C1CCCCC1)N1CCn2c(c(O)n([C@H]3C[C@@H]3c3ccccc3)c2=O)C1`: the IC50 is > 1500 nM. On the same count and under the same terms, in the case of `O=c1n2c(c(O)n1[C@H]1C[C@@H]1c1ccccc1)CN(CC1CCCCC1)CC2` it was > 2500 nM. For `O=C(NCc1ccco1)N1CCn2c(c(O)n([C@H]3C[C@@H]3c3ccccc3)c2=O)C1`, the IC50 is > 2500 nM. Same read-out and setting: to `O=C(Nc1ccccc1-c1ccccc1)N1CCn2c(c(O)n(Cc3ccccc3)c2=O)C1` belongs > 2500 nM; to `O=C(Nc1ccccc1-c1ccccc1)N1CCn2c(c(O)n(-c3cccc4ccccc34)c2=O)C1`, > 2500 nM.

For the compound `CCCCn1c(O)c2n(c1=O)CCN(C(=O)Nc1ccccc1-c1ccccc1)C2`, the IC50 was > 2500 nM. The same measure, in the same setting: to `CN(C)C(=O)N1CCn2c(c(O)n([C@H]3C[C@@H]3c3ccccc3)c2=O)C1` belongs > 2500 nM.

The target of the next assay is T1, Smoothened homolog. The experiment in a line: Antagonist activity at smoothened expressed in mouse Shh Light2 cells co-expressing Gli-dependent reporter gene assessed as inhibition of Hh pathway. For orientation: Reporter assays use an easily measured gene product as a stand-in for the process of interest.
Consider `O=C(Nc1ccccc1-c1ccccc1)N1CCn2c(c(O)n(C3CC34CCCCC4)c2=O)C1` (stereo not given), for which the IC50 is > 2500 nM.

Target in the next assay: not listed separately
The experiment in a line: Antagonist activity at smoothened expressed in mouse Shh Light2 cells co-expressing Gli-dependent reporter gene assessed as inhibition of Hh pathway.
For the compound `O=C(Nc1cccnc1-c1ccccc1)N1CCn2c(c(O)n([C@H]3C[C@@H]3c3ccccc3)c2=O)C1`, the IC50 was 28 nM. Take `O=C(Nc1ccncc1-c1ccccc1)N1CCn2c(c(O)n([C@H]3C[C@@H]3c3ccccc3)c2=O)C1`: the IC50 amounted to 89 nM. On the same count and under the same terms, in the case of `O=C(Nc1cccnc1-c1cccc(Cl)c1)N1CCn2c(c(O)n([C@H]3C[C@@H]3c3ccccc3)c2=O)C1` it was 18 nM; in that of `COc1cccc(-c2ncccc2NC(=O)N2CCn3c(c(O)n([C@H]4C[C@@H]4c4ccccc4)c3=O)C2)c1`, 82 nM.

As to `O=C(Nc1cccnc1-c1ccsc1)N1CCn2c(c(O)n([C@H]3C[C@@H]3c3ccccc3)c2=O)C1`, the IC50 was 240 nM. `Cn1cc(-c2ncccc2NC(=O)N2CCn3c(c(O)n([C@H]4C[C@@H]4c4ccccc4)c3=O)C2)cn1`: the IC50 stood at 1200 nM. In the case of `O=C(Nc1ccnn1-c1ccccc1)N1CCn2c(c(O)n([C@H]3C[C@@H]3c3ccccc3)c2=O)C1`, the IC50 was 16 nM.

In the case of `O=C(Nc1ccccc1-c1ccccc1)c1ccc2c(c1)C(=O)N([C@H]1C[C@@H]1c1ccccc1)C2=O`, the IC50 worked out at 4600 nM.

Consider `O=C(Nc1ccccc1-c1ccccc1)N1CCN2C(=O)N([C@H]3C[C@@H]3c3ccccc3)CC2C1` (stereo not given in full), for which the IC50 worked out at 3000 nM. Still for that read-out and setting: in the case of `CC(C)(C)C(=O)N1CCn2c(c(O)n([C@H]3C[C@@H]3c3ccccc3)c2=O)C1` it was 4500 nM; in that of `O=C(NC1CCCCC1)N1CCn2c(c(O)n([C@H]3C[C@@H]3c3ccccc3)c2=O)C1`, 600 nM. Still for that read-out and setting: in the case of `CCCCCCNC(=O)N1CCn2c(c(O)n([C@H]3C[C@@H]3c3ccccc3)c2=O)C1` it was 1500 nM; in that of `CCCCN(CCCC)C(=O)N1CCn2c(c(O)n([C@H]3C[C@@H]3c3ccccc3)c2=O)C1`, 1900 nM; in that of `O=C(Nc1cccc(Cl)c1Cl)N1CCn2c(c(O)n([C@H]3C[C@@H]3c3ccccc3)c2=O)C1`, 340 nM.

For the compound `O=C(Nc1cc(Cl)cc(Cl)c1)N1CCn2c(c(O)n([C@H]3C[C@@H]3c3ccccc3)c2=O)C1`, the IC50 turned out to be 780 nM. On the same count and under the same terms, to `O=C(Nc1ccc2c(c1)OCO2)N1CCn2c(c(O)n([C@H]3C[C@@H]3c3ccccc3)c2=O)C1` belongs 2700 nM; to `CN(C(=O)N1CCn2c(c(O)n([C@H]3C[C@@H]3c3ccccc3)c2=O)C1)c1ccccc1-c1ccccc1`, 1600 nM. Still for that read-out and setting: in the case of `O=C(Nc1ccccc1-c1ccccc1)N1CCn2c(c(O)n(CCc3ccccc3)c2=O)C1` it was 5000 nM; in that of `O=C(Nc1ccccc1-c1ccccc1)N1CCn2c(c(O)n(-c3cccc(-c4ccccc4)c3)c2=O)C1`, 2500 nM; in that of `O=C(Nc1ccccc1-c1ccccc1)N1CCn2c(c(O)n(C3Cc4ccccc4C3)c2=O)C1`, 320 nM.

In the case of `COC(=O)c1cccc(NC(=O)N2CCn3c(c(O)n([C@H]4C[C@@H]4c4ccccc4)c3=O)C2)c1Cl`, the IC50 was determined as 2200 nM. For the compound `Cc1c(Cl)cccc1NC(=O)N1CCn2c(c(O)n([C@H]3C[C@@H]3c3ccccc3)c2=O)C1`, the IC50 was found to be 370 nM. The same measure, in the same setting: in the case of `Cc1cccc(Cl)c1NC(=O)N1CCn2c(c(O)n([C@H]3C[C@@H]3c3ccccc3)c2=O)C1` it was 530 nM; in that of `O=C(Nc1ccc(F)c(Cl)c1Cl)N1CCn2c(c(O)n([C@H]3C[C@@H]3c3ccccc3)c2=O)C1`, 510 nM; in that of `O=C(Nc1c(Cl)cc(C(F)(F)F)cc1Cl)N1CCn2c(c(O)n([C@H]3C[C@@H]3c3ccccc3)c2=O)C1`, 330 nM.

Take `CS(=O)(=O)c1cc(Cl)c(NC(=O)N2CCn3c(c(O)n([C@H]4C[C@@H]4c4ccccc4)c3=O)C2)c(Cl)c1`: the IC50 turned out to be 53 nM. As for `Cc1cc(C#N)cc(Cl)c1NC(=O)N1CCn2c(c(O)n([C@H]3C[C@@H]3c3ccccc3)c2=O)C1`, the IC50 was found to be 150 nM. In the case of `CC(C)c1ccccc1NC(=O)N1CCn2c(c(O)n([C@H]3C[C@@H]3c3ccccc3)c2=O)C1`, the IC50 amounted to 180 nM.
